Counter-ions that a name gives are not always drawn.

One experiment has as its system excitatory amino acid receptors.
Experiment: not given
The settings on record: statement in words; R.H. Evans et al., Br. J. Pharmac., 1987, 91, 531; cited from earlier work.
In the case of `O=C(O)c1cc(=O)c2ccccc2[nH]1` [Kynurenic acid, 4-oxo-1,4-dihydroquinoline-2-carboxylic acid], the “antagonist of excitatory amino acid receptors” value was “weak and non-selective antagonist”.

The next experiment concerns the target T1, NMDA receptor (Rattus norvegicus, UniProt P35439).
T1 construct: from tissue; host or cells: rat cortical slice
Description: antagonism of responses to NMDA, rat cortical slice preparation. The experiment is classed as cell-based.
Details: not given
How it is done:
The effects of compounds of the invention on responses to the agonists NMDA, kainate and quisqualate were assessed using the rat cortical slice preparation as described by Wong et al., Proc. Natl. Acad. Sci. USA, 1986, 83, 7104. The apparent equilibrium constants (Kb) were calculated from the righthand shift in the agonist concentration-response curve.
The compound `O=C(O)c1cc(O)c2ccc(Br)cc2n1` [7-bromo-4-oxo-1,4-dihydroquinoline-2-carboxylic acid] had a Kb below 100 µM.

The experiment is the same for the next values; noted with them: rat cortical slice; apparent equilibrium constant (Kb) calculated from righthand shift in the agonist concentration-response curve; read-out: NMDA antagonist activity at concentrations (Kb).
With `O=C(NOCc1ccccc1)c1cc(=O)c2c(Cl)cc(Cl)cc2[nH]1` [5,7-Dichloro-4-oxo-1,4-dihydroquinoline-2-(O-benzyl)hydroxamic acid], the Kb was below 100 µM.

Consider `O=C(NO)c1cc(=O)c2c(Cl)cc(Cl)cc2[nH]1` [5,7-Dichloro-4-oxo-1,4-dihydroquinoline-2-hydroxamic acid potassium salt.], for which the Kb was below 100 µM.

With `Cc1cc(C)c2c(O)cc(C(=O)O)nc2c1` [5,7-Dimethyl-4-oxo-1,4-dihydroquinoline-2-carboxylic acid], the Kb is below 100 µM.

With `O=C(O)c1cc(O)c2c(Br)cc(Br)cc2n1` [5,7-dibromo-4-oxo-1,4-dihydroquinoline-2-carboxylic acid], the Kb is below 100 µM.

Regarding `O=C(O)c1cc(O)c2c(Cl)cc(Cl)cc2n1` [5,7-dichloro-4-oxo-1,4-dihydroquinoline-2-carboxylic acid], the Kb is below 100 µM.

Turning to `CCc1cc(Br)c2c(O)cc(C(=O)O)nc2c1` [5-Bromo-7-ethyl-4-oxo-1,4-dihydroquinoline-2-carboxylic acid], the Kb is below 100 µM.

Regarding `Cc1cc(Br)c2c(O)cc(C(=O)O)nc2c1` [5-Bromo-7-methyl-4-oxo-1,4-dihydroquinoline-2-carboxylic acid], the Kb was below 100 µM.

Turning to `CCc1cc(Cl)c2c(O)cc(C(=O)O)nc2c1` [5-Chloro-7-ethyl-4-oxo-1,4-dihydroquinoline-2-carboxylic acid], the Kb was below 100 µM.

In the case of `O=C(O)c1cc(O)c2c(Cl)cc(I)cc2n1` [5-Chloro-7-iodo-4-oxo-1,4-dihydroquinoline-2-carboxylic acid], the Kb was below 100 µM.

Turning to `CCc1cccc2nc(C(=O)O)cc(O)c12` [5-Ethyl-4-oxo-1,4-dihydroquinoline-2-carboxylic acid], the Kb is below 100 µM.

For `O=C(O)c1cc(=O)c2c(F)cccc2[nH]1` [5-Fluoro-4-oxo-1,4-dihydroquinoline-2-carboxylic acid], the Kb is below 100 µM.

For `O=C(O)c1cc(O)c2c(I)cccc2n1` [5-Iodo-4-oxo-1,4-dihydroquinoline-2-carboxylic acid], the Kb is below 100 µM.

As for `Cc1cc(I)c2c(O)cc(C(=O)O)nc2c1` [5-Iodo-7-methyl-4-oxo-1,4-dihydroquinoline-2-carboxylic acid], the Kb is below 100 µM.

`O=C(O)c1cc(=O)c2c(C(F)(F)F)cccc2[nH]1` [5-Trifluoromethyl-4-oxo-1,4-dihydroquinoline-2-carboxylic acid]: the Kb is below 100 µM.

As to `O=C(O)c1cc(=O)c2c(Br)cccc2[nH]1` [5-bromo-4-oxo-1,4-dihydroquinoline-2-carboxylic acid], the Kb was below 100 µM.

Consider `O=C(O)c1cc(O)c2c(Cl)cccc2n1` [5-chloro-4-oxo-1,4-dihydroquinoline-2-carboxylic acid], for which the Kb is below 100 µM.

Regarding `Cc1cccc2nc(C(=O)O)cc(O)c12` [5-methyl-4-oxo-1,4-dihydroquinoline-2-carboxylic acid], the Kb is below 100 µM.

For the compound `O=C(O)c1cc(=O)c2cc(F)ccc2[nH]1` [6-fluoro-4-oxo-1,4-dihydroquinoline-2-carboxylic acid], the Kb was below 100 µM.

For `CCc1cc(Br)cc2nc(C(=O)O)cc(O)c12` [7-Bromo-5-ethyl-4-oxo-1,4-dihydroquinoline-2-carboxylic acid], the Kb was below 100 µM.

Turning to `Cc1cc(Br)cc2nc(C(=O)O)cc(O)c12` [7-Bromo-5-methyl-4-oxo-1,4-dihydroquinoline-2-carboxylic acid], the Kb was below 100 µM.

`CCc1cc(Cl)cc2nc(C(=O)O)cc(O)c12` [7-Chloro-5-ethyl-4-oxo-1,4-dihydroquinoline-2-carboxylic acid]: the Kb is below 100 µM.

Regarding `O=C(O)c1cc(O)c2c(I)cc(Cl)cc2n1` [7-Chloro-5-iodo-4-oxo-1,4-dihydroquinoline-2-carboxylic acid], the Kb is below 100 µM.

As to `Cc1cc(I)cc2nc(C(=O)O)cc(O)c12` [7-Iodo-5-methyl-4-oxo-1,4-dihydroquinoline-2-carboxylic acid], the Kb was below 100 µM.

Take `O=C(O)c1cc(O)c2ccc(Cl)cc2n1` [7-chloro-4-oxo-1,4-dihydroquinoline-2-carboxylic acid]: the Kb was below 100 µM.

Take `O=C(O)c1cc(O)c2ccc(F)cc2n1` [7-fluoro-4-oxo-1,4-dihydroquinoline-2-carboxylic acid]: the Kb was below 100 µM.

Consider `O=C(O)c1cc(O)c2ccc(I)cc2n1` [7-iodo-4-oxo-1,4-dihydroquinoline-2-carboxylic acid], for which the Kb was below 100 µM.

With `Cc1ccc2c(O)cc(C(=O)O)nc2c1` [7-methyl-4-oxo-1,4-dihydroquinoline-2-carboxylic acid], the Kb is below 100 µM.

Consider `O=C(O)c1cc(=O)c2ccc([N+](=O)[O-])cc2[nH]1` [7-nitro-4-oxo-1,4-dihydroquinoline-2-carboxylic acid], for which the Kb was below 100 µM.

(Values after patent EP0303387B1, “Kynurenic acid derivatives useful in the treatment of neurodegenerative disorders” (MERCK SHARP & DOHME LTD., priority 1987, dated 1989).)
